Several values for one entry are separate records, joined by “and”; a condition that tells them apart may be missing. Identical values can stand only once. Like-named read-outs stand apart in the source and are kept apart here.
Key:
HRV14-induced vNOX = assay: Spectrophotometric vNOX activity assay (NADH oxidation) with HRV-infected MCF-10A cells
[1] = system: tNOX-like activity (vNOX); assay: NADH oxidase activity at the surface of HRV14-infected MCF-10A cells (tNOX-like activity, 22 min period); type: biochemical, human; conditions: 1 μM, added after 45 min
Method: FIG. 11: NADH oxidase activity assayed for 90 min at the surface of MCF-10A human mammary epithelial cells. Capsaicin (1 μM) was added after 45 min and the assay was continued for an additional 45 min. Top Panel: No virus. Bottom Panel: MCF-10A human mammary cells infected with HRV 14. The MCF-10A cells normally lack a drug-inhibited NOX activity (lack tNOX). The normal, capsaicin-resistant constitutive NOX activity with a period length of 24 min is shown by the single downward pointing arrows. The triple arrows are tNOX-like activities with a period length of 22 min and which were inhibited by capsaicin. This activity appeared only in the virus-infected cells (see also FIG. 12). The upward pointing arrows denote a capsaicin-stimulated activity sometimes observed in proliferating endothelial cells present both with and without virus. tNOX-like activities (triple arrows) inhibited by 1 μM capsaicin now dominate the activity pattern.
FIG. 12: As in FIG. 11 except 20 h post-infection with HRV 14. Top Panel: No virus. The control MCF-10A cells normally lack a drug-inhibited NOX activity (lack tNOX). Bottom Panel: MCF-10A cells 20 h post infection with HRV 14. The normal, capsaicin-resistant constitutive NOX activity with a period length of 24 min is shown by the single downward pointing arrows. […]

MT-2 cells = assay: Toxicity to non-infected MT-2 cells by MTT utilization; type: cell-based, human
Method: After 5 days, 20 μl of MTT stock solution (7.5 mg/ml) was added. […] Subsequently, 100 μl of 10% v/v Triton X100 in acidified isopropanol was added, and absorbance was determined at 550 nm with reference at 630 nm. The cytotoxic effect of EGCg was reflected by a decrease of the cell viability of mock infected cells in the presence of EGCg in comparison to mock infected cells without EGCg (OD 492 nm) was lower than the value of mock infected cells without EGCg. The cytotoxicity values are given as negative values. Positive values are recorded for a stimulatory effect on cell viability and/or an increase in cell proliferation. Testing the antiviral potency of various compositions was accomplished as follows. EGCg and EC were from Sigma (St. Louis, Mo.). Stock solutions of 100 mM were prepared in ethanol and serially diluted with water between 10^−3 molar and 10^−9 molar. […] Each experiment was in a fourfold assay.

HRV14 [2] = assay: HRV14-induced CPE in less sensitive (Berlin) HeLa strain, XTT test; type: cell-based, human rhinovirus; conditions: for EC50: read-out: EC50 to prevent a cytopathic effect
Method: Inhibition by CapsiVirol-T of the HRV cytopathic effect and effects on cell viability were tested using a HeLa strain which is less sensitive to tNOX inhibitors than certain other HeLa cells (Institute for Infectious Medicine, Berlin, Germany) (FIG. 17). In these studies, both CapsiVirol-T and EGCg, the principal green tea catechin, were tested. […] The test substance-containing medium was removed and the cells were infected with viruses at a multiplicity of infection of 0.1. For controls, virus infections were in the absence of the test substance. Mock infections were in the presence and absence of the test substance. Cell viability was measured in the XTT test directly at the days post infection (d.p.i.) indicated (FIG. 17). […] The cytopathic effect induced by a virus was determined from a decrease of cell viability (=decrease of […] nm in comparison to the mock infected control in the absence of the test substance). […] Cell viability was measured with the XTT test. Virus inoculation in the presence of CapsiVirol-T (without FCS) was for 30 min. […] Cell viability was monitored using the XTT test after 1, 2, and 3 days p.i. A control was at 1.5 h p.i. (in the figure 0 d p.i.) (FIG. 18). High OD values represent living cells, and low OD values represent cell damage. This damage is either induced by HRV14 (=cytopathic effect/CPE) or a toxic effect of the compound in mock-infected cells.

[3] = system: HXB II standard virus strain of HIV; assay: HIV-1 replication in MT-2 cells scored by titration of supernatants (syncytia); type: cell-based
From the text: (§1) The MT-2 cell line, which cells are retrovirus transformed, was used. Virus applied to the MT-2 cells was the HXB II standard virus strain of HIV, isolated early in the 1980's (HIV Research Community Standard Reference Gene Sequence Data Base No. 135829). […] The main characteristic of the HXBII virus strain was to induce syncytia (SI) in certain cells such as MT-2 cells. This permitted assessment of the production of HIV by light microscopy, and thus, by titration of supernatant, the amount of infectious virus. Virus replication was determined as follows. Antiviral activity was assessed at day four or five after infection by scoring p24 antigen production by a commercial kit (DuPont) and by titration of the supernatants. Each well of each concentration of compound was titrated in a fourfold assay. MT-2 cells (4×10^5 per well) were added to all titration steps. After incubation, 100 μl of supplemented RPMI 1640 was added. After 5 d, all wells were scored for SI formation by light microscopy. The highest dilution (titer) displaying at least one SI were scored as positive, and the highest titers were averaged. […] Both MT-2 cell and PBM cell supernatants were titered on MT-2 cells. Testing the antiviral potency of various compositions was accomplished as follows. EGCg and EC were from Sigma (St. Louis, Mo.). Stock solutions of 100 mM were prepared in ethanol and serially diluted with water between 10^−3 molar and 10^−9 molar. […] Each experiment was in a fourfold assay.

[4] = system: human peripheral blood lymphocytes; assay: Viability of human peripheral blood lymphocytes; type: cell-based; conditions: data not shown
human rhinovirus HRV 14 = assay: HRV-HeLa test system: cytopathic effect of human rhinovirus in HeLa cells; type: cell-based; conditions: HRV 14, HeLa, XTT test 72 h post infection; read-out: EC50 inhibition of CPE
HIV-1 strain 952 = HIV-1 strain 952 infection of peripheral blood monocytes (p24 ELISA and syncytia titer on MT-2 cells); type: cell-based
From the text: FIG. 4: ELISA of supernatant p24 antigen of HIV-1 strain 952 (solid line; solid symbols) and HIV-1 titer based on number of syncytia observed by light microscopy on day 5 by titration of the day 4 supernatants in previously uninfected MT-2 cells (dashed line; open symbols) as a measure of mature virus production after 4 d with HIV strain 952 (City Laboratory, Hamburg) and mononuclear cells in peripheral blood (PBMCs)=peripheral blood monocytes prepared from healthy volunteers, as described herein below. Assays were in triplicate ±standard deviations.
As non-permanent cells, PBM cells were derived from freshly prepared pooled buffy coats from healthy blood donors. The PBM cells were isolated by Ficoll density gradient centrifugation and cultivated (stimulated with phytohemagglutinin) for 48 h in RPMI 1640 medium supplemented with 20% FBS and L-glutamine. PBMC tropic laboratory isolate No. 9.5 was used in the PBMC assays.
Virus replication was determined as follows. Antiviral activity was assessed at day four or five after infection by scoring p24 antigen production by a commercial kit (DuPont) and by titration of the supernatants. […] After 5 d, all wells were scored for SI formation by light microscopy. The highest dilution (titer) displaying at least one SI were scored as positive, and the highest titers were averaged. […]

Herpes simplex virus 1 = type: cell-based; conditions: HeLa cells
[5] = system: TMEV/GDVII virus, TMEV/Bean virus; type: cell-based, Theiler's murine encephalomyelitis virus; conditions: RAW macrophages
mock-infected HeLa cells = assay: Toxicity (cell viability) in mock-infected HeLa cells, XTT test; type: cell-based, human; conditions: at EC50 concentrations (0.1 μM and below)
Method: Inhibition by CapsiVirol-T of the HRV cytopathic effect and effects on cell viability were tested using a HeLa strain which is less sensitive to tNOX inhibitors than certain other HeLa cells (Institute for Infectious Medicine, Berlin, Germany) (FIG. 17). In these studies, both CapsiVirol-T and EGCg, the principal green tea catechin, were tested. […] The test substance-containing medium was removed and the cells were infected with viruses at a multiplicity of infection of 0.1. For controls, virus infections were in the absence of the test substance. Mock infections were in the presence and absence of the test substance. Cell viability was measured in the XTT test directly at the days post infection (d.p.i.) indicated (FIG. 17). […] The cytopathic effect induced by a virus was determined from a decrease of cell viability (=decrease of […] nm in comparison to the mock infected control in the absence of the test substance). Cell viability was monitored using the XTT test after 1, 2, and 3 days p.i. A control was at 1.5 h p.i. (in the figure 0 d p.i.) (FIG. 18). High OD values represent living cells, and low OD values represent cell damage. This damage is either induced by HRV14 (=cytopathic effect/CPE) or a toxic effect of the compound in mock-infected cells.

[6] = system: HXB II standard virus strain of HIV; assay: HIV-1 replication in MT-2 cells scored by p24 antigen production; type: cell-based
From the text: as §1

HIV = assay: Infectivity of HIV in MT-2 cells or PBMCs at different control virus titers; type: cell-based
HRV14 [7] = assay: HRV14 cytopathic effect in human osteoblast (hFOB) cells; conditions: between 1 and 1000 nM
[8] = read-out: EC50 Cell Production I (Mar. 24, 2003), 73 h hrv-infected MCF-10A cells
[9] = read-out: EC50 inhibition of vNOX
[10] = read-out: EC50 Cell Production II (Apr. 01, 2003), 73 h hrv-infected MCF-10A cells

**Q.** What does the source list for `CC(=O)Nc1ccc(O)cc1` [Acetaminophen]?
**A.** EC50 inhibition of vNOX, range in words (HRV14-induced vNOX): micromolar range; EC50 (HRV14-induced vNOX; [8]): 1 µM

**Q.** `COc1cc(CNC(=O)CCCC/C=C/C(C)C)ccc1O` [Capsaicin] was tested. Which EC50 (HRV14-induced vNOX; read-out: EC50 Cell Production IV (May 01, 2003), 72 h HRV-infected MCF-10A cells) did it give?
**A.** 0.001 µM

**Q.** And the “tNOX-like activities with a period length of 22 min” value [1]?
**A.** inhibited

**Q.** Which “toxicity by MTT utilization” value (MT-2 cells) does the source give for `Oc1cc(O)c2c(c1)O[C@H](c1ccc(O)c(O)c1)[C@H](O)C2` [EC, (−)-epicatechin] here?
**A.** no toxicity

**Q.** Which results are given for `O=C(O[C@@H]1Cc2c(O)cc(O)cc2O[C@@H]1c1cc(O)c(O)c(O)c1)c1cc(O)c(O)c(O)c1` [EGCg, (−)-epigallocatechin-3-gallate]?
**A.** fold higher concentration compared to CapsiVirol-T required to achieve inhibition (HRV14 [2]): ≥ 10 fold; EC50 (HRV14 [2]; day 1): < 0.1 µM; EC50 (HRV14 [2]; day 2): 0.1 µM; reduction of titers ([3]; 1 nM): no reduction; titrated virus, % of the virus control or EC control ([3]; 10^−5 M): 20%; reduction of titers ([3]; 10^−6 and 10^−7 M): approximately 50%; reduction of titers ([3]; 10^−8 M): 40%; EC50 (HRV14-induced vNOX; [9]): 0.01 µM; effect on viability [4]: without effect; EC50 (human rhinovirus HRV 14): ~1 µM; infection (production of infective particles based on p24 assay) (HIV-1 strain 952; 10 μM, PBMC, strain 952): prevented; EC50 (HIV-1 strain 952; PBMC supernatants, read-out: EC50 for inhibition of production of infective virus (syncytia formation after 5 days on MT-2 cells)): < 1 µM; infection (Herpes simplex virus 1): prevented; infection [5]: prevented; toxicity (mock-infected HeLa cells): not toxic; effect on p24 production ([6]; 1 nM): no effect; inhibition of virus production (p24) as compared to the virus control ([6]; 10^−4 M, 4 or 5 d): 93%; inhibition of virus replication (p24) ([6]; 10^−5 M, 4 or 5 d): 45%; inhibitory effect (p24) ([6]; 10^−6 and 10^−7 M): approximately 20%; infectivity (syncytia reassay) (HIV; 1 μM): almost entirely prevented; EC50 (HIV; control virus production of 14,000 infective particles/ml, read-out: EC50 reducing infectivity of HIV): ~1 µM; EC50 (HIV; control virus production of 40,000 infective particles/ml, read-out: EC50 reducing infectivity of HIV): ~10 µM; EC50 (HIV; read-out: EC50 for prevention of infection (day 4 supernatants reassayed on MT-2 cells, syncytia after 5 days)): ~0.1 µM; reduction of MTT utilization (MT-2 cells; 10^−4 M): 90%; cytotoxic effects by MTT utilization (MT-2 cells; dilutions of less than 10^−5 M): no cytotoxic effects

**Q.** `CC(C)Cc1ccc(C(C)C(=O)O)cc1` (stereo not shown) [Ibuprofen] was tested. Which “EC50 inhibition of vNOX, range in words” value (HRV14-induced vNOX) did it give?
**A.** micromolar range

**Q.** And the EC50 (HRV14-induced vNOX; [8])?
**A.** 1 µM

**Q.** What about the EC50 (HRV14-induced vNOX; [9]) of the same compound?
**A.** ~10 µM

**Q.** For `COc1ccc2cc([C@H](C)C(=O)O)ccc2c1` [Naproxen], which “EC50 inhibition of vNOX, range in words” value (HRV14-induced vNOX) is on record?
**A.** micromolar range

**Q.** What about the EC50 (HRV14-induced vNOX; [8]) of the same compound?
**A.** 5 µM

**Q.** And the EC50 (HRV14-induced vNOX; [10])?
**A.** 2 µM

**Q.** What about the EC50 (HRV14-induced vNOX; [9]) of the same compound?
**A.** ~10 µM

**Q.** With `COc1cc(CN)ccc1O` [Vanillylamine] as the compound, how does the EC50 (HRV14-induced vNOX; [9]) read?
**A.** 0.0001 µM

**Q.** `[Cl-].[Cl-].[Zn+2]` [ZnCl2, zinc chloride] was tested. Which EC50 (HRV14-induced vNOX; [8]) did it give?
**A.** 0.01 µM

**Q.** What about the EC50 (HRV14-induced vNOX; [10]) of the same compound?
**A.** 0.01 µM

**Q.** What about the EC50 (HRV14-induced vNOX; [9]) of the same compound?
**A.** ~0.01 µM and 0.01 µM

**Q.** What about the “reduction of the cytopathic effect” value (HRV14 [7]; virus dilution of 1:20) of the same compound?
**A.** 71±9%

**Q.** And the “reduction of the cytopathic effect” value (HRV14 [7]; virus dilution of 1:50)?
**A.** 50%±14%
